Data from patent US7687643B2, “Process for preparing 3,3-dimethylindolines” (Amgen Inc., priority 2001, dated 2010).

These compounds were tested on Human Umbilical Vein Endothelial cells (VEGF-stimulated) (assay: HUVEC proliferation assay, VEGF-stimulated). Conditions: VEGF 50 ng/mL, 72 h, CyQuant, read-out: inhibited VEGF-stimulated HUVEC proliferation at a level.
Type: cell-based
Protocol: Human Umbilical Vein Endothelial cells are purchased from Clonetics, Inc., as cryopreserved cells harvested from a pool of donors. These cells, at passage 1, are thawed and expanded in EBM-2 complete medium, until passage 2 or 3. The cells are trypsinized, washed in DMEM+10% FBS+antibiotics, and spun at 1000 rpm for 10 min. Prior to centrifugation of the cells, a small amount is collected for a cell count. After centrifugation, the medium is discarded, and the cells are resuspended in the appropriate volume of DMEM+10% FBS+antibiotics to achieve a concentration of 3×10^5 cells/mL. Another cell count is performed to confirm the cell concentration. The cells are diluted to 3×10^4 cells/mL in DMEM+10% FBS+antibiotics, and 100 μL of cells are added to a 96-well plate. The cells are incubated at 37° C. for 22 h.
Prior to the completion of the incubation period, compound dilutions are prepared. Five-point, five-fold serial dilutions are prepared in DMSO, at concentrations 400-fold greater than the final concentrations desired. 2.5 μL of each compound dilution are diluted further in a total of 1 mL DMEM+10% FBS+antibiotics (400× dilution). Medium containing 0.25% DMSO is also prepared for the 0 μM compound sample. At the 22-hour timepoint, the medium is removed from the cells, and 100 μL of each compound dilution is added. The cells are incubated at 37° C. for 2-3 h.
During the compound pre-incubation period, the growth factors are diluted to the appropriate concentrations. Solutions of DMEM+10% FBS+antibiotics, containing either VEGF or bFGF at the following concentrations: 50, 10, 2, 0.4, 0.08, and 0 ng/mL are prepared. For the compound-treated cells, solutions of VEGF at 550 ng/mL or bFGF at 220 ng/mL for 50 ng/mL or 20 ng/mL final concentrations, respectively, are prepared since 10 μL of each will be added to the cells (110 μL final volume). At the appropriate time after adding the compounds, the growth factors are added. VEGF is added to one set of plates, while bFGF is added to another set of plates. For the growth factor control curves, the media on wells B4-G6 of plates 1 and 2 are replaced with media containing VEGF or bFGF at the varying concentrations (50-0 ng/mL). The cells are incubated at 37° C. for an additional 72 h.
At the completion of the 72 h incubation period, the medium is removed, and the cells are washed twice with PBS. After the second wash with PBS, the plates are tapped gently to remove excess PBS, and the cells are placed at −70° C. for at least 30 min. The cells are thawed and analyzed using the CyQuant fluorescent dye (Molecular Probes C-7026), following the manufacturer's recommendations. The plates are read on a Victor/Wallac 1420 workstation at 485 nm/530 nm (excitation/emission). Raw data are collected and analyzed using a 4-parameter fit equation in XLFit. IC50 values are then determined.
CC(C)(C)OC(=O)N1CCC[C@@H]1COc1cc(NC(=O)c2cccnc2NCc2ccncc2)cc(C(F)(F)F)c1 [Example 916, (R) N-[3-(1-Boc-pyrrolidin-2-ylmethoxy)-5-trifluoromethyl-phenyl]-2-[(pyridin-4-ylmethyl)-amino]-nicotinamide] was tested, and the IC50 was < 0.05 µM. In the case of CN1CCC(COc2cc(NC(=O)c3cccnc3NCc3ccncc3)ccc2C(F)(F)C(F)(F)F)CC1 [Example 954, N-[3-(1-Methyl-piperidin-4-ylmethoxy)-4-pentafluoroethyl-phenyl]-2-[(pyridin-4-ylmethyl)-amino]-nicotinamide], the IC50 is reported as < 0.05 µM. O=C(Nc1cccc(C(OC[C@@H]2CCCN2)(C(F)(F)F)C(F)(F)F)c1)c1cccnc1NCc1ccncc1 [Example 1138, 2-[(Pyridin-4-ylmethyl)-amino]-N-{3-[2,2,2-trifluoro-1-(pyrrolidin-2-ylmethoxy)-1-trifluoromethyl-ethyl]-phenyl}-nicotinamide] was tested, and the IC50 was < 0.05 µM. With CC1(C)CNCc2cc(NC(=O)c3cccnc3NCc3ccnc(N)c3)ccc21 [Example 1168, 2-(((2-Amino-4-pyridinyl)methyl)amino)-N-(4,4-dimethyl-1,2,3,4-tetrahydro-7-isoquinolinyl)-3-pyridinecarboxamide] the IC50 was < 0.05 µM. For CNc1nccc(CNc2ncccc2C(=O)Nc2ccc3c(c2)CN(C)CC3(C)C)n1 [Example 1041, 2-(((2-(methylamino)-4-pyrimidinyl)methyl)amino)-N-(2,4,4-trimethyl-1,2,3,4-tetrahydro-7-isoquinolinyl)-3-pyridinecarboxamide], the IC50 was < 0.05 µM. With CN1CCC(CCCOc2cc(CNc3ncccc3C(=O)Nc3cccc(C(F)(F)F)c3)ccn2)CC1 [Example 923, 2-({2-[3-(1-Methyl-piperidin-4-yl)-propoxy]-pyridin-4-ylmethyl}-amino)-N-(3-trifluoromethyl-phenyl)-nicotinamide] the IC50 was < 0.05 µM. CC1(C)CN(C[C@@H]2CCCN2)c2cc(NC(=O)c3cccnc3NCc3ccncc3)ccc21 [Example 1176, N-(3,3-Dimethyl-1-pyrrolidin-(2S)-ylmethyl-2,3-dihydro-1H-indol-6-yl)-2-[(pyridin-4-ylmethyl)-amino]-nicotinamide] was tested, and the IC50 was < 0.05 µM. In the case of CNc1cc(CNc2ncccc2C(=O)Nc2cc(O[C@@H]3CCOC3)cc(C(F)(F)F)c2)ccn1 [Example 1083, 2-(((2-(methylamino)-4-pyridinyl)methyl)amino)-N-(3-((3R)-tetrahydro-3-furanyloxy)-5-(trifluoromethyl)phenyl)-3-pyridinecarboxamide], the IC50 is reported as < 0.05 µM. CNc1nccc(CNc2ncccc2C(=O)Nc2ccc(C(F)(F)F)c(OCCNS(C)(=O)=O)c2)n1 [Example 1033, 2-(((2-(Methylamino)-4-pyrirnidinyl)methyl)amino)-N-(3-((2-((methylsulfonyl)amino)ethyl)oxy)-4-(trifluoromethyl)phenyl)-3-pyridinecarboxamide] was tested, and the IC50 was < 0.05 µM. In the case of O=C(Nc1ccc(C(F)(F)F)c(OCCN2CCCC2)c1)c1cccnc1NCc1ccncc1 [Example 982, 2-[(Pyridin-4-ylmethyl)-amino]-N-[3-(2-pyrrolidin-1-yl-ethoxy)-4-trifluoromethyl-phenyl]-nicotinamide], the IC50 is reported as < 0.05 µM. For CC(C)(C)c1ccc(NC(=O)c2cccnc2NCc2ccnc(OCCN3CCOCC3)c2)cc1 [Example 905, N-(4-tert-Butyl-phenyl)-2-{[2-(2-morpholin-4-yl-ethoxy)-pyridin-4-ylmethyl]-amino}-nicotinamide], the IC50 was < 0.05 µM. CNc1nccc(CNc2ncccc2C(=O)Nc2cc(OCCNS(C)(=O)=O)cc(C(F)(F)F)c2)n1 [Example 1091, 2-(((2-(methylamino)-4-pyrimidinyl)methyl)amino)-N-(3-((2-((methylsulfonyl)amino)ethyl)oxy)-5-(trifluoromethyl)phenyl)-3-pyridinecarboxamide] was tested, and the IC50 was < 0.05 µM. In the case of CNc1nccc(CNc2ncccc2C(=O)Nc2ccc3c(c2)CNCC3(C)C)n1 [Example 1038, N-(4,4-Dimethyl-1,2,3,4-tetrahydro-7-isoquinolinyl)-2-(((2-(methylamino)-4-pyrimidinyl)methyl)amino)-3-pyridinecarboxamide], the IC50 is reported as < 0.05 µM. For O=C(Nc1ccc(Cl)cc1)c1ncccc1NCc1ccc2ncccc2c1 [Example 7, N-(4-Chlorophenyl){3-[(6-quinolylmethyl)amino](2-pyridyl)}carboxamide], the IC50 was < 0.05 µM. For O=C(Nc1cccc(C(F)(F)F)c1)c1cccnc1NCc1ccc2ncccc2c1 [Example 169, {2-[(6-Quinolylmethyl)amino](3-pyridyl)}-N-[3-(trifluoromethyl)phenyl]carboxamide], the IC50 was < 0.05 µM. O=C(Nc1cc(CCCN2CCOCC2)cc(C(F)(F)F)c1)c1cccnc1NCc1ccncc1 [Example 964, N-[3-(3-Morpholin-4-yl-propyl)-5-trifluoromethyl-phenyl]-2-[(pyridin-4-ylmethyl)-amino]-nicotinamide] was tested, and the IC50 was < 0.05 µM. With CCN1CCC(C)(C)c2ccc(NC(=O)c3cccnc3NCc3ccnc(N)c3)cc21 [Example 1125, 2-[(2-Amino-pyridin-4-ylmethyl)-amino]-N-(1-ethyl-4,4-dimethyl-1,2,3,4-tetrahydro-quinolin-7-yl)-nicotinamide] the IC50 was < 0.05 µM. In the case of CC1(C)CN(C(=O)c2cc[n+]([O-])cc2)c2cc(NC(=O)c3cccnc3NCc3ccncc3)ccc21 [Example 1100, N-[3,3-Dimethyl-1-(1-oxy-pyridine-4-carbonyl)-2,3-dihydro-1H-indol-6-yl]-2-[(pyridin-4-ylmethyl)-amino]-nicotinamide], the IC50 is reported as < 0.05 µM. In the case of CC1(C)CNc2cc(NC(=O)c3cccnc3NCc3ccncc3)ccc21 [Example 133, N-(3,3-Dimethylindolin-6-yl){2-[(4-pyridylmethyl)amino](3-pyridyl)}carboxamide], the IC50 is reported as < 0.05 µM. In the case of CC1(C)CN(S(C)(=O)=O)c2cc(NC(=O)c3cccnc3NCc3ccnc(N)c3)ccc21 [Example 1059, 2-(((2-amino-4-pyridinyl)methyl)amino)-N-(3,3-dimethyl-1-(methylsulfonyl)-2,3-dihydro-1H-indol-6-yl)-3-pyridinecarboxamide], the IC50 is reported as < 0.05 µM. For CNc1nccc(CNc2ncccc2C(=O)Nc2ccc(C(C)(C)C3CCN(C)CC3)cc2)n1 [Example 1043, 2-(((2-(methylamino)-4-pyrimidinyl)methyl)amino)-N-(4-(1-methyl-1-(1-methyl-4-piperidinyl)ethyl)phenyl)-3-pyridinecarboxamide], the IC50 was < 0.05 µM. COc1cc(CNc2ncccc2C(=O)Nc2ccc(C(C)C)cc2)ccn1 [Example 140, (2-{[(2-Methoxy(4-pyridyl))methyl]amino}(3-pyridyl))-N-[4-(methylethyl)phenyl]carboxamide] was tested, and the IC50 was < 0.05 µM. CC1(C)CNc2cc(NC(=O)c3cccnc3NCc3ccncn3)ccc21 [Example 1029, N-(3,3-Dimethyl-2,3-dihydro-1H-indol-6-yl)-2-((4-pyrimidinylmethyl)amino)-3-pyridinecarboxamide] was tested, and the IC50 was < 0.05 µM. For CN1CC(C)(C)Oc2ccc(NC(=O)c3cccnc3NCc3ccncc3)cc21 [Example 942, 2-[(Pyridin-4-ylmethyl)-amino]-N-(2,2,4-trimethyl-3,4-dihydro-2H-benzo[1,4]oxazin-6-yl)-nicotinamide], the IC50 was < 0.05 µM. With CC1(C)CCNc2cc(NC(=O)c3cccnc3NCc3ccncn3)ccc21 [Example 1110, N-(4,4-Dimethyl-1,2,3,4-tetrahydro-quinolin-7-yl)-2-[(pyrimidin-4-ylmethyl)-amino]-nicotinamide] the IC50 was < 0.05 µM.
